Tested on: Rett Syndrome mutation R270X
Test: Read-through activity in cell-free assay (firefly/renilla luciferase reporter, in vitro transcription/translation)
Format: biochemical, rabbit
Conditions: cell-free dose-response, concentration range 0-12 μM; firefly/renilla expression ratio normalized to WT and non-treated control (FIGS. 6A-B)
Description: The plasmids were transcribed in vitro and translated using rabbit reticulocytes (TNT mix) and then tested for the expression levels of the firefly and renilla luciferases. WT plasmids expressed both firefly and renilla luciferases while mutant plasmids expressed only the renilla luciferase due to the stop codon found in the inserted sequence. The read-through assays were conducted for the tested compounds and the controls by adding the compounds to the in vitro transcription/translation reaction mixture. In case the compounds exerted suppression of the premature nonsense/stop codon mutation, the firefly luciferase was expressed and a fold-change in its expression was observed.
Read-through activity of Rett Syndrome mutation R270X was tested using ELX-02 that was manufactured in Example 1 and 2, and the mutation suppression was calculated based on firefly/renilla expression ratio values, and normalized with respect to the expression level of the WT and the control sample (no tested compound).
FIGS. 6A-B present the results of Rett Syndrome mutation R270X nonsense mutation suppression dose-response cell-free assays conducted for ELX-02 according to embodiments of the present invention, at a concentration rage of 0-12 μM.

SMILES: C[C@H](N)[C@H]1O[C@@H](OC2C(O)[C@H](N)CC(N)[C@H]2O[C@H]2OC([C@@H](C)O)[C@@H](O)C(O)C2N)C(O)C1O (stereo partly shown) [ELX-02]
- read-through of the Rett Syndrome mutation, R270X: dose-dependent increase

Source: US11136345B2, “Large scale preparation of pseudo-trisaccharide aminoglycosides and of intermediates thereof” (Eloxx Pharmaceuticals Ltd., priority 2017, dated 2021)
